Legend:
A594 (lung) = assay: SRB short-term cytotoxicity assay, A594; assay type: cell-based, human; conditions: for IC50: Homo sapiens, 96 h
Method: (§1) Short-term anti-proliferative assays were carried out by two different assays using a panel of human cancer and non-malignant human cell lines. […] The transformed human embryonic kidney cell line HEK293T (wt KRAS) was sensitive to all tested drugs, including TMPyP4, a cationic porphyrin established as a G4 ligand, as well as the anticancer drug 5-fluorouracil (5-FU).
(§2) Human cell lines, breast carcinoma (MCF7), lung carcinoma (A549), pancreatic cancer (MIA PaCa2, Panc-1), immortalised telomerase-negative human lung fibroblast (ALT) and normal human lung fibroblast (WI-38), were all purchased from American Type Cell Culture (ATCC). Cell lines were maintained in appropriate medium supplemented with 10% fetal bovine serum (Invitrogen, UK), 2 mM L-glutamine (Invitrogen, Netherlands), and other components as specified by the suppliers. All cell lines were maintained at 37°C, 5% CO2, and routinely passaged. Short-term growth inhibition was measured using the SRB assay as described previously[43] (additional details described in Supplementary Information). […]
(§3) Sulforhodamine B (SRB) short-term cytotoxicity assay
(§4) Cells were seeded at appropriate densities into the wells of 96 well plates in their corresponding medium and incubated overnight to allow the cells to attach. Subsequently cells were exposed to various concentrations of freshly made solutions of drugs and incubated for 96 h. The cells were subsequently fixed with ice-cold trichloacetic acid (TCA) (10%, w/v) for 30 min and stained with 0.4% SRB dissolved in 1% acetic acid for 15 min.
All incubations were carried out at room temperature except for TCA fixation, which was at 4 °C. The IC50 value, the concentration required to inhibit cell growth by 50%, was determined from the mean absorbance at 540 nm for each drug concentration expressed as a percentage of the control untreated well absorbance. (Performed at School of Pharmacy, University College of London). […]
(#sc-30/sc-126; Santa Cruz Biotechnology Inc., Santa Cruz, CA, USA). Finally, immunoblots were incubated with secondary anti-mouse antibody conjugated with horseradish peroxidase (BioRad) for 3 h at room temperature. The membranes were processed for protein detection using Super Signal substrate (Pierce, Rockford, IL, USA). β-Actin (#A-5441, Sigma–Aldrich) was used as a loading control. Steady-state protein levels were expressed as mean ±SEM from at least three independent experiments.

MCF7 (breast) = assay: SRB short-term cytotoxicity assay, MCF7; assay type: cell-based; conditions: Homo sapiens, 96 h
Method: as §1, §2, §3, §4
All incubations were carried out at room temperature except for TCA fixation, which was at 4 °C. […]
After electrophoretic transfer onto nitrocellulose membranes, immunoblots were blocked with 5% milk solution, and next incubated overnight at 4 °C with primary mouse monoclonal antibody reactive to KRAS/p53 (#sc-30/sc-126; Santa Cruz Biotechnology Inc., Santa Cruz, CA, USA). […] Steady-state protein levels were expressed as mean ±SEM from at least three independent experiments.

[1] = test system: human KRAS promoter (pGL-Ras0.5, pGL-Ras2.0); assay: KRAS promoter luciferase reporter assay in HEK293T cells; assay type: cell-based; conditions: equitoxic (IC50) concentrations, 72 h, vs DMSO
Text: A first evaluation of the compounds' ability to down-regulate KRAS gene transcription by directly acting on the KRAS promoter was undertaken with a luciferase reporter assay. For this purpose two different size wild-type promoter constructs were used, containing the G4 sequence and cloned into the Firefly luciferase pGL3 Basic backbone (pGL-Ras0.5, PGL-Ras2.0). These and pGL3 Basic empty (Firefly Luciferase negative control/no promoter) were co-transfected into HEK293T cells together with Renilla luciferase pRL-TK (transfection efficiency normalization) as a G4 negative control. […] In general, the data in Figure 5 clearly portraits a reduction of luciferase activity by ~25–50% when compared to Renilla basal levels induced by all G4 ligands.
Figure 5 KRAS promoter activity is decreased following exposure of HEK293T cells lines to equitoxic (IC50) concentrations of compounds TMPyP4, 2d, 3d and 3e. Cells were co-transfected with pGL3-basic vector (empty vector control), or with KRAS promoter luciferase reporter construct PGL-Ras0.5, or PGL-Ras2.0, together with pRL-TK. Twenty-four h later, cells were replated in 96 wells plates, at 5000 cells per well. […] KRAS promoter activity levels were evaluated by Dual-Luciferase assay 72 h after compound exposure. Results are expressed as the luciferase signal ratio of pGL-Ras2.0 or pGL-Ras0.5 to pGL3-basic vector transfected cells, after normalization with Renilla Luciferase. The results are expressed as the mean ± SEM fold-change compared to DMSO exposure, from three independent experiments. *p < 0.05 and § p < 0.01 from DMSO vehicle control.
HEK293T cells were seeded in 35 mm plates at 150000 cells per well. 24 h later, cells were transiently co-transfected with pGL3-basic vector (empty vector control), or with KRAS promoter luciferase reporter construct pGL-Ras0.5, or pGL-Ras2.0, together with pRL-TK (Promega, Madison, WI, USA). KRAS promotor luciferase reporters respectively harbour 500 bp and 2000 bp of the human KRAS promotor region, and were previously described elsewhere. pGL3 Basic empty was used as negative control, and pRL-TK simultaneously for transfection efficiency normalization and as a G4 negative control. […] Transfections were performed using Lipofectamine 2000 (Invitrogen), according to the manufacturer's instructions. […] Finally, 72 h after compound incubation, cells were lysed and firefly and Renilla luciferase activities were measured using the Dual-Luciferase®Reporter Assay System (Promega). KRAS promoter activity levels were expressed as the luciferase signal ratio of pGL-Ras2.0 or pGL-Ras0.5 to pGL3-basic vector transfected cells, after normalization with Renilla Luciferase. The results are expressed as the mean ± SEM fold-change compared to DMSO exposure, from three independent experiments.

Compound	Selectivity index SI = IC50(WI-38)/IC50(A594) (A594 (lung))	IC50 (A594 (lung))	IC50 (MCF7 (breast))	Reduction of KRAS promoter (luciferase) activity [1]
Cn1cc2c3ccccc3nc-2c2cc(Br)ccc21 [2a, 2-bromo-5-methyl-indolo[3,2-c]quinoline]	9.3	670 nM	2880 nM	–
CCN(CC)CCCNc1ccc2c(c1)c1[nH]c3ccccc3c1c[n+]2C [2d]	–	400 nM	2400 nM	up to 50%
CCN(CC)CCCNc1ccc2[nH]c3c(c[n+](C)c4ccc(NCCCN(CC)CC)cc34)c2c1.[Cl-] [3d]	–	–	–	up to 50%
CCN(CC)CCCNc1ccc2c(c1)[nH]c1c2c[n+](C)c2ccc(NCCCN(CC)CC)cc12.[Cl-] [3e]	7.0	1450 nM	11400 nM	up to 50%
C[n+]1ccc(-c2c3nc(c(-c4cc[n+](C)cc4)c4ccc([nH]4)c(-c4cc[n+](C)cc4)c4ccc([nH]4)c(-c4cc[n+](C)cc4)c4nc2C=C4)C=C3)cc1 [TMPyP4, reference compound]	–	–	–	25%
